These results are taken from US8680010B2, “Synergistic herbicidal composition containing penoxsulam and florasulam” (Dow AgroSciences, LLC., priority 2011, dated 2014).

Holding throughout (assay type): in vivo
The test system of assay [1] is common mallow (Malva neglecta Wallr.). As to the kind of experiment: Field weed control by penoxsulam plus florasulam, MALNE. The following applies: 90 DAA. How it is done: (§1) Field trials were conducted in olive tree crops in Spain using standard herbicide small plot research methodology. Plot size was typical for small plot research in tree crops, varying from 4 to 10 meters (m) wide by 4 to 10 m long. […] Soil types ranged from coarse to medium to fine soil texture. Perennial olive crops were transplanted by hand into orchards as per normal local cultural practices. The olive crop was grown using normal cultural practices for fertilization, watering and maintenance to ensure good growth of the crop and the weeds.
(§2) Treatments were applied by backpack sprayer using either compressed air or CO2, at spray pressures at 300 kilopascals (kPa). Spray tips were typically Flat Fan Teejet nozzles, such as FanJet 120 or Teejet 11003 VP. Spray volumes were approximately 300 liters per hectare (L/ha). […]
(§3) For each treatment, the appropriate formulated product amount to treat the plot area, to achieve the desired application rate, based on unit area of application (hectare), was calculated, measured, and mixed in water prior to applying with the backpack sprayer […]

Assay [2] deals with corn salad (Valerianella echinata). As to the kind of experiment: Field weed control by penoxsulam plus florasulam, VLLEC. The settings on record: 90 DAA. How it is done:
as §1
(§4) Treatments were applied by backpack sprayer using either compressed air or CO2, at spray pressures at 300 kilopascals (kPa). Spray tips were typically Flat Fan Teejet nozzles, such as FanJet 120 or Teejet 11003 VP. Spray volumes were approximately 300 liters per hectare (L/ha). The weed spectrum included, but was not limited to, chamomile, (Anthemis cotula L., […]), field marigold (Calendula arvensis, CLDAR), henbit (Lamium amplexicaule L, LAMAM), annual sowthistle (Sonchus oleraceus L., SONOL), common mallow (Malva neglecta Wallr., MALNE), corn salad (Valerianella echinata, VLLEC), horseweed (Conyza canadensis (L.) Cronq., ERICA), field madder (Sherardia arvensis L., SHRAR), and sowthistle (Sonchus species, SONSS). Treatments were applied preemergence or early postemergence to the stage of the weeds. Olive tree spacings were typically rows that were 7 to 8 m apart, and trees in the row were from 4 to 6 m apart.
(§5) For each treatment, the appropriate formulated product amount to treat the plot area, to achieve the desired application rate, based on unit area of application (hectare), was calculated, measured, and mixed in water prior to applying with the backpack sprayer
(§6) Treatments were rated as compared to the untreated control plots.
(§7) The treated plots and control plots were rated blind at various intervals after application. Ratings were based of Percent (%) Visual weed control, where 0 corresponds to no injury and 100 corresponds to complete kill.
(§8) The following equation was used to calculate the expected activity of mixtures containing two active ingredients, A and B: Expected=A+B−(A×B/100)
(§9) A=observed efficacy of active ingredient A at the same concentration as used in the mixture;
(§10) B=observed efficacy of active ingredient B at the same concentration as used in the mixture.

Assay [3] has as its system field marigold (Calendula arvensis). As to the kind of experiment: Field weed control by penoxsulam plus florasulam, CLDAR. The settings on record: 30-45 DAA. As to the method: as §1, §2, §3
Assay [4] has as its system horseweed (Conyza canadensis (L.) Cronq.). As to the kind of experiment: Field weed control by penoxsulam plus florasulam, ERICA. The following applies: 99-175 DAA. How it is done: as §1, §2, §3
The test system of assay [5] is field madder (Sherardia arvensis L.). As to the kind of experiment: Field weed control by penoxsulam plus florasulam, SHRAR. The settings on record: 99-175 DAA. As to the method:
as §1, §2, §3

Assay [6] has as its system chamomile, mayweed (Anthemis cotula L.). The assay is described as follows: Field weed control by penoxsulam plus florasulam, ANTCO. The settings on record: 30-45 DAA. How it is done: as §1, §4, §5, §6, §7, §8, §9, §10
Assay [7] deals with sowthistle (Sonchus species). The assay is described as follows: Field weed control by penoxsulam plus florasulam, SONSS. The following applies: 99-175 DAA. As to the method:
as §1, §2, §3

Assay [8] deals with annual sowthistle (Sonchus oleraceus L.). As to the kind of experiment: Field weed control by penoxsulam plus florasulam, SONOL. The following applies: 30-45 DAA. As to the method:
as §1, §4, §5, §6, §7, §8, §9, §10

For assay [9], the system named is henbit (Lamium amplexicaule L.). The assay is described as follows: Field weed control by penoxsulam plus florasulam, LAMAM. The settings on record: 30-45 DAA. How it is done:
as §1, §4, §5, §6, §7, §8, §9, §10

In the case of `COc1ncc(F)c2nc(S(=O)(=O)Nc3c(F)cccc3F)nn12` [Florasulam, N-(2,6-difluorophenyl)-8-fluoro-5-methoxy[1,2,4]-triazolo[1,5-c]pyrimidine-2-sulfonamide], in assay [1] (florasulam 5 gai/ha), the “% Control MALNE Obs” value is listed as 50%. Also, the “% Control VLLEC Obs” value in assay [2] (florasulam 5 gai/ha) and in assay [2] (florasulam 6.3 gai/ha) was 10% each time. The “% Control CLDAR Obs” value in assay [3] (florasulam 5 gai/ha) was determined as 40%. Moreover, the “% Control ERICA Obs” value in assay [4] (florasulam 7.5 gai/ha) turned out to be 51%. The “% Control SHRAR Obs” value in assay [5] (florasulam 7.5 gai/ha) was determined as 0%. The “% Control ANTCO Obs” value in assay [6] (florasulam 5 gai/ha) turned out to be 50%; in assay [6] (florasulam 6.3 gai/ha), 69%; in assay [6] (florasulam 7.5 gai/ha) it was 95%. Further, in assay [7] (florasulam 7.5 gai/ha), the “% Control SONSS Obs” value was found to be 8%. Besides, the “% Control SONOL Obs” value was determined as 50% in assay [8] (florasulam 5 gai/ha), 60% in assay [8] (florasulam 6.3 gai/ha) and 60% in [8] (florasulam 7.5 gai/ha). For the same molecule, the results for the “% Control LAMAM Obs” value in assay [9] (florasulam 5 gai/ha), in assay [9] (florasulam 6.3 gai/ha) and in [9] (florasulam 7.5 gai/ha) were 5%, 30% and 30%, respectively.
For the molecule `COc1cnc(OC)n2nc(NS(=O)(=O)c3c(OCC(F)F)cccc3C(F)(F)F)nc12` [Penoxsulam], the “% Control MALNE Obs” value in assay [1] (penoxsulam 10 gai/ha) came to 8%. Besides, the “% Control VLLEC Obs” value in assay [2] (penoxsulam 10 gai/ha) and in [2] (penoxsulam 13 gai/ha) was 80% throughout. Also, the “% Control CLDAR Obs” value in [3] (penoxsulam 10 gai/ha) is 5%. Besides, the “% Control ERICA Obs” value in assay [4] (penoxsulam 20 gai/ha) is recorded as 23%. In addition, the “% Control SHRAR Obs” value in assay [5] (penoxsulam 20 gai/ha) amounted to 0%. Further, the “% Control ANTCO Obs” value in [6] (penoxsulam 10 gai/ha) is reported as 0%; in assay [6] (penoxsulam 13 gai/ha), 5%; in assay [6] (penoxsulam 15 gai/ha), 5%. For the same molecule, the “% Control SONSS Obs” value in assay [7] (penoxsulam 20 gai/ha) turned out to be 53%. In addition, the “% Control SONOL Obs” value in assay [8] (penoxsulam 10 gai/ha) was found to be 0%; in assay [8] (penoxsulam 13 gai/ha) it was 2%; in assay [8] (penoxsulam 15 gai/ha), 5%. In addition, the results for the “% Control LAMAM Obs” value in assay [9] (penoxsulam 10 gai/ha), in [9] (penoxsulam 13 gai/ha) and in assay [9] (penoxsulam 15 gai/ha) were 0%, 0% and 4%, respectively.
